“And” between values parts separate entries of the source, which are not always exact repeats. Identical values can stand only once.

The source of these data is patent publication US20210355104A1, “ADENOSINE RECEPTOR BINDING COMPOUNDS” (Nikang Therapeuticsm Inc., priority 2018, published 2021).

The target in assay [1] is T1, Adenosine A2A receptor (Homo sapiens, UniProt P29274). Put plainly: Adenosine A2A receptor competitive binding assay (Tag-lite HTRF). The following applies: Tag-lite adenosine A2A receptor ligand binding. In a few lines:
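Tag-lite HTRF competition: donor-labelled cells expressing human A2A were mixed with serially diluted compounds (DMSO 0.6% in dilutions) and red fluorescent A2A antagonist ligand (60 nM stock). Incubated 2 h at room temperature before HTRF readout.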
(In general: Time-resolved FRET reads energy transfer from a long-lived donor to a nearby acceptor.)

Assay [2] addresses T1, Adenosine A2A receptor. Put plainly: cAMP assay in 293A cells stably expressing the adenosine A2A receptor (CGS21680 stimulation, HTRF). The arrangement: expressed in transfected cells; host or cells: 293A cells (Invitrogen, Cat# R705-07) infected with A2A-expressing lentivirus (custom packaged by Biosettia), puromycin selected. Format: cell-based. The following applies: 293A-A2AR cells, 0.1% BSA. (Cyclic AMP is a second messenger, typically raised through Gs and lowered through Gi signalling.)

Assay [3] concerns p-CREB (phosphorylated cAMP response-element binding protein) in human whole blood. Put plainly: p-CREB assay in human whole blood by flow cytometry (NECA stimulation, CD4 staining). Format: cell-based. The following applies: Homo sapiens. In a few lines:
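Fresh human whole blood preincubated 1 h at room temperature with compounds (11-point 1:3 series from 30 uM) plus adenosine deaminase, then stimulated 30 min with NECA and Rolipram (10× additions of 50 uM stocks). Cells lysed/fixed, permeabilised, stained for p-CREB and CD4, read by flow cytometry.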
Background: In flow cytometry, cells or beads pass a laser one at a time.

The mark [4] stands for this setting: 2 h room temperature, values separated by / are repeat determinations.
The mark [5] stands for this setting: 8 nM CGS, values separated by / are repeat determinations, read-out: cAMP (nM) 0.1% BSA, 8 nM CGS.
Setting [6] is: 1 uM CGS, values separated by / are repeat determinations, read-out: cAMP (nM) 0.1% BSA, 1 uM CGS.
Setting [7] is: values separated by / are repeat determinations.
The mark [8] stands for this setting: 1 uM CGS, read-out: cAMP (nM) 0.1% BSA, 1 uM CGS.
Where [9] appears, read: 8 nM CGS, read-out: cAMP (nM) 0.1% BSA, 8 nM CGS.

T1 sequence (P29274 whole entry): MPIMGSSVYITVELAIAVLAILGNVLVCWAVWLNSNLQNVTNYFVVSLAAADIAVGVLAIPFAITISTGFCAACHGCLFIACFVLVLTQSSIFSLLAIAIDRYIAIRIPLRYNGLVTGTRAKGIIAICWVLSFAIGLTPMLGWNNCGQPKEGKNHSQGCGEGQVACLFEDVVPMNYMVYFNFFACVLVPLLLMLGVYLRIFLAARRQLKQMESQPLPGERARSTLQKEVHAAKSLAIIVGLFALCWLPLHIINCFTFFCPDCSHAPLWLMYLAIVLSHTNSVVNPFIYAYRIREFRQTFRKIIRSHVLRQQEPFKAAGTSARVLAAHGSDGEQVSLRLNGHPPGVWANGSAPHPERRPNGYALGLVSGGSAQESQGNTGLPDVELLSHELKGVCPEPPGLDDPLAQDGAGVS

Consider `CNS(=O)(=O)NCCOc1nc(N)nc(-c2ccccc2)c1-c1cc(C)nc(C(F)(F)F)c1` [Example 121], for which the IC50 at Adenosine A2A receptor [1] (setting [4]) was 3.9 nM; on Adenosine A2A receptor [2] (setting [5]) it was 1.5 nM and 1.4 nM; on Adenosine A2A receptor [2] (setting [6]), 55 nM and 139 nM; in assay [3] (setting [7]), 478 nM.
Turning to `CCc1c(COc2nc(N)nc(-c3ccc(F)cc3)c2-c2cc(C)nc(C(F)F)c2)nnn1C` [Example 136, 5-(2-(difluoromethyl)-6-methylpyridin-4-yl)-4-((5-ethyl-1-methyl-1H-1,2,3-triazol-4-yl)methoxy)-6-(4-fluorophenyl)pyrimidin-2-amine], the IC50 at Adenosine A2A receptor [1] (setting [4]) was 0.6 nM and 1.1 nM; on Adenosine A2A receptor [2] (setting [5]), 2.3 nM; at Adenosine A2A receptor [2] (setting [6]), 29 nM and 27 nM; in assay [3] (setting [7]), 15.8 nM.
With `Cc1cc(-c2c(OCc3cccc(C(C)(C)O)n3)nc(N)nc2-c2ccc(F)cc2)cc(C(F)F)n1` [Example 225], the IC50 was 18.1 nM on Adenosine A2A receptor [1] (HTRF); 136 nM and 200 nM and 176 nM on Adenosine A2A receptor [2] (setting [8]); 15.1 nM in assay [3].
Take `CCc1c(COc2nc(N)nc(-c3ccc(F)cc3)c2-c2cc(C)nc(C(F)F)c2)nnn1CC` [Example 135, 4-((1,5-diethyl-1H-1,2,3-triazol-4-yl)methoxy)-5-(2-(difluoromethyl)-6-methylpyridin-4-yl)-6-(4-fluorophenyl)pyrimidin-2-amine]: the IC50 at Adenosine A2A receptor [1] (setting [4]) was 1.2 nM and 4.3 nM; on Adenosine A2A receptor [2] (setting [5]), 3.1 nM and 2.6 nM; on Adenosine A2A receptor [2] (setting [6]) it was 77 nM; in assay [3] (setting [7]), 93.2 nM.
With `Cc1cc(-c2c(OCCN(C)c3cccc(OCCO)n3)nc(N)nc2-c2ccc(F)cc2)cc(C(F)F)n1` [Example 154, 2-((6-((2-((2-amino-5-(2-(difluoromethyl)-6-methylpyridin-4-yl)-6-(4-fluorophenyl)pyrimidin-4-yl)oxy)ethyl)(methyl)amino)pyridin-2-yl)oxy)ethan-1-ol], the IC50 was 1.4 nM and 4.2 nM on Adenosine A2A receptor [1] (setting [4]); 1.3 nM on Adenosine A2A receptor [2] (setting [5]); 11 nM at Adenosine A2A receptor [2] (setting [6]); 41.6 nM in assay [3] (setting [7]).
Consider `Cc1cc(-c2c(OCCn3ccccc3=O)nc(N)nc2-c2ccc(F)cc2)cc(C(F)F)n1` [Example 122, 1-(2-((2-amino-5-(2-(difluoromethyl)-6-methylpyridin-4-yl)-6-(4-fluorophenyl)pyrimidin-4-yl)oxy)ethyl)pyridin-2(1H)-one], for which the IC50 at Adenosine A2A receptor [1] (setting [4]) was 1.8 nM; at Adenosine A2A receptor [2] (setting [5]) it was 0.88 nM and 0.69 nM; at Adenosine A2A receptor [2] (setting [6]), 35 nM and 53 nM; in assay [3] (setting [7]) it was 63 nM.
As to `Cc1cc(-c2c(OCc3ccccn3)nc(N)nc2-c2ccc(F)cc2)cc(C(F)F)n1` [Example 95, 5-(2-(difluoromethyl)-6-methylpyridin-4-yl)-4-(4-fluorophenyl)-6-(pyridin-2-ylmethoxy)pyrimidin-2-amine], the results for the IC50 (on Adenosine A2A receptor [1] (setting [4]); at Adenosine A2A receptor [2] (setting [6]); in assay [3] (setting [7])) were 0.24 nM, 12 nM and 14 nM, respectively.
For the compound `Cc1cc(-c2c(OCCNS(N)(=O)=O)nc(N)nc2-c2ccc(F)cc2)cc(C(F)(F)F)n1` [Example 111], the IC50 at Adenosine A2A receptor [1] (setting [4]) was 4.1 nM; at Adenosine A2A receptor [2] (setting [5]), 2.2 nM and 1.1 nM; in assay [3] (setting [7]) it was 1780 nM.
As to `Cc1cc(-c2c(OCC3CCOCC3)nc(N)nc2-c2ccc(F)cc2)cc(C(F)F)n1` [Example 55, 5-(2-(difluoromethyl)-6-methylpyridin-4-yl)-4-(4-fluorophenyl)-6-((tetrahydro-2H-pyran-4-yl)methoxy)pyrimidin-2-amine], the IC50 at Adenosine A2A receptor [1] (setting [4]) is 0.7 nM and 5.4 nM; at Adenosine A2A receptor [2] (setting [5]) it was 0.54 nM and 0.49 nM; at Adenosine A2A receptor [2] (setting [6]), 96 nM; in assay [3] (setting [7]), 93 nM.
Regarding `Cc1cc(-c2c(OCCN(C)c3ccccn3)nc(N)nc2-c2ccc(F)cc2)cc(C(F)F)n1` [Example 79, 5-(2-(difluoromethyl)-6-methylpyridin-4-yl)-4-(4-fluorophenyl)-6-(2-(methyl(pyridin-2-yl)amino)ethoxy)pyrimidin-2-amine], the figures for the IC50 (on Adenosine A2A receptor [1] (setting [4]); on Adenosine A2A receptor [2] (setting [6]); in assay [3] (setting [7])) were 0.51 nM, 1 nM and 11.2 nM, respectively.
For `Cc1cc(-c2c(OCc3nccn3CCC(=O)O)nc(N)nc2-c2ccc(F)cc2)cc(C(F)F)n1` [Example 204, 3-(2-(((2-amino-5-(2-(difluoromethyl)-6-methylpyridin-4-yl)-6-(4-fluorophenyl)pyrimidin-4-yl)oxy)methyl)-1H-imidazol-1-yl)propanoic acid], the IC50 was determined as 13 nM on Adenosine A2A receptor [1] (HTRF), 24 nM at Adenosine A2A receptor [2] (setting [9]) and 456 nM in assay [3].
For the compound `COCC(O)COc1nc(N)nc(-c2ccc(F)cc2)c1-c1cc(C)nc(C(F)F)c1` (stereo not drawn) [Example 85, 1-((2-amino-5-(2-(difluoromethyl)-6-methylpyridin-4-yl)-6-(4-fluorophenyl)pyrimidin-4-yl)oxy)-3-methoxypropan-2-ol], the IC50 on Adenosine A2A receptor [1] (setting [4]) came out at 4.2 nM; in assay [3] (setting [7]), 469 nM.
In the case of `Cc1cc(-c2c(OCc3nccn3C(C)CO)nc(N)nc2-c2ccc(F)cc2)cc(C(F)F)n1` (stereo not drawn) [Example 209, 2-(2-(((2-amino-5-(2-(difluoromethyl)-6-methylpyridin-4-yl)-6-(4-fluorophenyl)pyrimidin-4-yl)oxy)methyl)-1H-imidazol-1-yl)propan-1-ol], the IC50 is 1.9 nM and 4.2 nM at Adenosine A2A receptor [1] (HTRF); 1.6 nM and 2.4 nM at Adenosine A2A receptor [2] (setting [9]); 84 nM and 97 nM at Adenosine A2A receptor [2] (setting [8]); 125 nM in assay [3].
